Results from patent US20210382058A1, “PATIENT SELECTION FOR TREATMENT OF MYC POSITIVE CANCERS WITH INDENOISOQUINOLINES” (Purdue Research Foundation, priority 2020, published 2021).
Read-outs that look alike come from different tables or passages of the source.

How the values were obtained:
NCI-60 cancer cell lines = experiment: NCI-60 cancer cell line drug screen (GI50, MGM); type: cell-based, human; conditions: Homo sapiens; for GI50: read-out: Antiproliferative Activities [GI50 (μM)]
Experimental: Cancer cells were incubated with the test compounds at five concentrations ranging from 100 μM to 10 nM for 48 h. […] The approximate average of GI50 values across the entire panel of NCI-60 cancer cell lines for each compound was recorded as the MGM value.

[1] = test system: MYC protein expression in MCF-7 breast cancer cells; experiment: Western blotting of MYC protein level in MCF-7 cells; type: cell-based, human; conditions: Homo sapiens, MCF7; western blotting, MCF-7 cells, 0.5, 1, 2, and 4 μM, 24 hours; read-out: MYC Inhibition
Outline: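 Immunoblotting with ECL detection quantified MYC, with GAPDH (1:2000) as reference and anti-MYC at 1:1000.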

human topoisomerase I = target: T1, human topoisomerase I (Homo sapiens, UniProt P11387); conditions: relative topoisomerase I inhibition levels, previously determined, six levels (0 - 5, +++++ = 5); cited from earlier work
T1 sequence (P11387 1-765): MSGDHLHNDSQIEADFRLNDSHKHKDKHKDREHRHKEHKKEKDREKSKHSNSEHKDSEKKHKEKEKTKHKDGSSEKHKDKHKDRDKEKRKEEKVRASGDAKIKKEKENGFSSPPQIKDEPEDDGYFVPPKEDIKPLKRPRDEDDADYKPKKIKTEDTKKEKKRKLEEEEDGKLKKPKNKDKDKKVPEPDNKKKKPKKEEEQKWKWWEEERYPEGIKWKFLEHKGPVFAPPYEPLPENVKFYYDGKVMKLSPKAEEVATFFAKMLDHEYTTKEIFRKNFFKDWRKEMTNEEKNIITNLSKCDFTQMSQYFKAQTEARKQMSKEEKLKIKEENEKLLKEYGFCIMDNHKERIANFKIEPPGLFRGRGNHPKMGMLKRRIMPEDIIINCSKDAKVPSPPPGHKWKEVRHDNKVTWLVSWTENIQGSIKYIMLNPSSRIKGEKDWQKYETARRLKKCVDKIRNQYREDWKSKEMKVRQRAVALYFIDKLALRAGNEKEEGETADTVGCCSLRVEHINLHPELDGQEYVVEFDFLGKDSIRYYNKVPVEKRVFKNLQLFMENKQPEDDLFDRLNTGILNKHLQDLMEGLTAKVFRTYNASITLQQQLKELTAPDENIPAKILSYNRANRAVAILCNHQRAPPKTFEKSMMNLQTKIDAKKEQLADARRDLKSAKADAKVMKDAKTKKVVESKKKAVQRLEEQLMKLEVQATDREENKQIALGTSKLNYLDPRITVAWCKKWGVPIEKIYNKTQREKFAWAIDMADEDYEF

SMILES: CN(C)CCCn1c2c(c3ccc(N4CCNCC4)cc3c1=O)C(=O)c1ccccc1-2 [Compound 25]
- GI50 (NCI-60 cancer cell lines; 786-0, Renal Cancer, 786-0): 1.34 µM
- GI50 (NCI-60 cancer cell lines; A549, Non-Small Cell Lung Cancer, A549/ATCC): 0.22 µM
- GI50 (NCI-60 cancer cell lines; ACHN, Renal Cancer, ACHN): 0.39 µM
- GI50 (NCI-60 cancer cell lines; BT-549, Breast Cancer, BT-549): 1.27 µM
- GI50 (NCI-60 cancer cell lines; CAKI-1, Renal Cancer, CAKI-1): 1.05 µM
- GI50 (NCI-60 cancer cell lines; CCRF-CEM, Leukemia, CCRF-CEM): 0.34 µM
- GI50 (NCI-60 cancer cell lines; COLO 205, Colon Cancer, COLO 205): 0.62 µM
- GI50 (NCI-60 cancer cell lines; DU-145, Prostate Cancer, DU-145): 0.33 µM
- GI50 (NCI-60 cancer cell lines; EKVX, Non-Small Cell Lung Cancer, EKVX): 1.18 µM
- GI50 (NCI-60 cancer cell lines; HCC 2998, Colon Cancer, HCC-2998): 0.35 µM
- GI50 (NCI-60 cancer cell lines; HCT-15, Colon Cancer, HCT-15): 0.73 µM
- GI50 (NCI-60 cancer cell lines; HL-60, Leukemia, HL-60(TB)): 1.17 µM
- GI50 (NCI-60 cancer cell lines; HOP-62, Non-Small Cell Lung Cancer, HOP-62): 1.06 µM
- GI50 (NCI-60 cancer cell lines; HOP-92, Non-Small Cell Lung Cancer, HOP-92): 1.72 µM
- GI50 (NCI-60 cancer cell lines; HT-29, Colon Cancer, HT29): 0.35 µM
- GI50 (NCI-60 cancer cell lines; Hs-578T, Breast Cancer, HS 578T): 1.44 µM
- GI50 (NCI-60 cancer cell lines; IGROV-1, Ovarian Cancer, IGROV1): 0.84 µM
- GI50 (NCI-60 cancer cell lines; K562, Leukemia, K-562): 0.83 µM
- GI50 (NCI-60 cancer cell lines; KM12, Colon Cancer, KM12): 1.13 µM
- GI50 (NCI-60 cancer cell lines; LOX IMVI, Melanoma, LOX IMVI): 0.15 µM
- GI50 (NCI-60 cancer cell lines; Leukemia, SR): 0.31 µM
- GI50 (NCI-60 cancer cell lines; MCF7, Breast Cancer, MCF7): 0.3 µM
- GI50 (NCI-60 cancer cell lines; MDA-MB-231, Breast Cancer, MDA-MB-231/ATCC): 0.51 µM
- GI50 (NCI-60 cancer cell lines; MDA-MB-435, Melanoma, MDA-MB-435): 1.2 µM
- GI50 (NCI-60 cancer cell lines; MDA-MB-468, Breast Cancer, MDA-MB-468): 0.95 µM
- GI50 (NCI-60 cancer cell lines; MOLT-4, Leukemia, MOLT-4): 0.1 µM
- GI50 (NCI-60 cancer cell lines; Malme-3M, Melanoma, MALME-3M): 1.42 µM
- GI50 (NCI-60 cancer cell lines; Melanoma, M14): 1.05 µM
- GI50 (NCI-60 cancer cell lines; NCI-H23, Non-Small Cell Lung Cancer, NCI-H23): 1.05 µM
- GI50 (NCI-60 cancer cell lines; NCI-H226, Non-Small Cell Lung Cancer, NCI-H226): 0.56 µM
- GI50 (NCI-60 cancer cell lines; NCI-H322M, Non-Small Cell Lung Cancer, NCI-H322M): 0.45 µM
- GI50 (NCI-60 cancer cell lines; NCI-H460, Non-Small Cell Lung Cancer, NCI-H460): 0.31 µM
- GI50 (NCI-60 cancer cell lines; NCI-H522, Non-Small Cell Lung Cancer, NCI-H522): 0.96 µM
- GI50 (NCI-60 cancer cell lines; OVCAR-3, Ovarian Cancer, OVCAR-3): 1.05 µM
- GI50 (NCI-60 cancer cell lines; OVCAR-4, Ovarian Cancer, OVCAR-4): 0.34 µM
- GI50 (NCI-60 cancer cell lines; OVCAR-5, Ovarian Cancer, OVCAR-5): 2.12 µM
- GI50 (NCI-60 cancer cell lines; OVCAR-8, Ovarian Cancer, OVCAR-8): 0.4 µM
- GI50 (NCI-60 cancer cell lines; Ovarian Cancer, NCl/ADR-RES): 1.16 µM
- GI50 (NCI-60 cancer cell lines; Prostate Cancer, PC-3): 0.86 µM
- GI50 (NCI-60 cancer cell lines; RPMI-8226, Leukemia, RPMI-8226): 0.27 µM
- GI50 (NCI-60 cancer cell lines; RXF 393, Renal Cancer, RXF 393): 1.29 µM
- GI50 (NCI-60 cancer cell lines; Renal Cancer, U0-31): 0.77 µM
- GI50 (NCI-60 cancer cell lines; SF-268, CNS Cancer, SF-268): 0.95 µM
- GI50 (NCI-60 cancer cell lines; SF-295, CNS Cancer, SF-295): 1.16 µM
- GI50 (NCI-60 cancer cell lines; SF-539, CNS Cancer, SF-539): 1.61 µM
- GI50 (NCI-60 cancer cell lines; SK-MEL-2, Melanoma, SK-MEL-2): 1.71 µM
- GI50 (NCI-60 cancer cell lines; SK-MEL-5, Melanoma, SK-MEL-5): 0.7 µM
- GI50 (NCI-60 cancer cell lines; SK-MEL-28, Melanoma, SK-MEL-28): 1.53 µM
- GI50 (NCI-60 cancer cell lines; SK-OV-3, Ovarian Cancer, SK-OV-3): 1.05 µM
- GI50 (NCI-60 cancer cell lines; SN12C, Renal Cancer, SN12C): 0.33 µM
- GI50 (NCI-60 cancer cell lines; SNB-19, CNS Cancer, SNB-19): 0.54 µM
- GI50 (NCI-60 cancer cell lines; SNB-75, CNS Cancer, SNB-75): 0.95 µM
- GI50 (NCI-60 cancer cell lines; SW-620, Colon Cancer, SW-620): 0.16 µM
- GI50 (NCI-60 cancer cell lines; T47D, Breast Cancer, T-47D): 1.55 µM
- GI50 (NCI-60 cancer cell lines; TK-10, Renal Cancer, TK-10): 1.33 µM
- GI50 (NCI-60 cancer cell lines; U-251, CNS Cancer, U251): 0.64 µM
- GI50 (NCI-60 cancer cell lines; UACC-62, Melanoma, UACC-62): 1.03 µM
- GI50 (NCI-60 cancer cell lines; UACC-257, Melanoma, UACC-257): 1.69 µM
- mean GI50 across NCI-60 panel (MGM) (NCI-60 cancer cell lines; average of GI50 values across the entire panel of NCI-60 cancer cell lines): 720 nM
- minimal effective concentration [1]: > 4 µM
- Top1 Inhibiton (human topoisomerase I): ++ (medium inhibition, ++, MYC expression inhibited at 2.0 μM, or no clear dose-dependent MYC inhibition)
